# Test results as given in patent US20260294863A1, “METHOD OF TREATING FIBROTIC-RELATED CONDITION” (YISSUM RESEARCH DEVELOPMENT COMPANY OF THE HEBREW …, priority 2023, published 2026).
# “Also recorded” adds a separate entry of the source.
# Key:
# IL6 = assay: Secretion of IL6 from BzATP/LPS-activated microglia (ELISA); type: cell-based, Balb/C mice
# Procedure: (§1) Experiments were performed on primary microglial cells isolated from brains of neonatal Balb/C mice as previously described (Reichert and Rotshenker, 2003). The brains were stripped of their meninges and enzymatically dissociated. Cells were plated on Poly-L-lysine coated flasks for one week, re-plated for 1- to 2-hr on bacteriological plates and non-adherent cells were washed away. Microglia were propagated by incubation in 20% of medium, conditioned by the L-cell line that produces mouse-CSF. They were identified by morphology and positive immune-reactivity to P2y12, F4/80, complement receptor-3 and Galectin-3/MAC-2 (Reichert and Rotshenker 2003; Gitik et al. 2011).
# Cytokines were measured as previously described (Shamash et al. 2002) using ELISA Max deluxe set (Biolegend, CA, USA) for secreted TNFα and IL-6 proteins and ELISA DuoSet (R&D systems, UK) for secreted and cell associated IL-1β, according to manufacturer's instructions.
# The effect of ladostigil at concentrations of 1×10^−13 M to 1×10^−9 M on the secretion of cytokine proteins was assessed by adding it to microglia for 2 hr before LPS (0.75 μg/ml) and BzATP (400 μM). Other microglia were treated similarly with the steroid, budesonide as a reference standard at concentrations of 1× 10^−13 to 1× 10^−11 M. Measurements of cytokine secretion were performed 8 hrs after addition of LPS and BzATP. Since the levels of secreted IL-1β were still low, samples were concentrated 2- to 4-fold by an Amicon ultra-centrifugal filter device (Merck-Millipore, Ireland). ELISA was used to quantify the levels of cytokine proteins. Protein content in the microglia lysate was measured by Bradford and levels of cytokines were calculated and presented as pg/μg of microglial protein.
# TNFAIP3 = assay: Levels of TNFAIP3 protein in microglial cytoplasm; type: cell-based, Balb/C mice
# Procedure: as §1
# The addition of BzATP/LPS to microglia increased cytoplasmic levels of TNFαIP3 protein and nuclear ERGR1 protein.
# [1] = Body weight in bleomycin-induced lung fibrosis; type: in vivo, C57BL/6JOlaHsd mice; details: bleomycin lung fibrosis
# Procedure: (§2) The animal model of bleomycin-induced lung fibrosis is widely used to characterize the potential inhibitory effect of newly developed drugs (Distler et al. 2019). Experiments were performed in C57BL/6JOlaHsd male and female mice aged 12-13 weeks. Male mice weighed 23-27.3 g and female mice, 19.4-21.1 g. They were housed under pathogen-free conditions, up to 6 per cage, in IVC cages under a controlled temperature of 22-24° C., humidity and alternating 12-h light/dark cycles and provided with food and water ad libitum. In order to minimize the stress of daily injection, ladostigil (5 mg/Kg/day) was administered by micro-osmotic pumps, implanted subcutaneously under ketamine/xylazine anesthesia, 5 days before administration of bleomycin, and delivered for 3 weeks to mice of each sex. Saline (2-3/sex) and bleomycin controls were anesthetized as described above. Bleomycin solution (0.25 mg/kg in 50 μl) was instilled into the lumen of the trachea as shown in a video by Ehrentraut et al. (2019). […] Mice were weighed daily and sacrificed on day 21. Bronchial fluid was collected as described in Ehrentraut et al. (2019). TNFα and IL-6 in the bronchial fluid lavage was measured by ELISA as described in the preceding section.
# (§3) Experiments were performed in C57BL/6JOlaHsd male mice aged 12-13 weeks as described for ladostigil. AN1284 (2.5 mg/kg/day) was administered by micro-osmotic pumps, implanted subcutaneously under ketamine/xylazine anesthesia, 5 days before administration of bleomycin and delivered for 3 weeks. Mice were weighed daily, sacrificed on day 21 and bronchial fluid was collected. Fibrosis was measured by staining with Sirius red as described for ladostigil. TNFα and IL-6 in the bronchial fluid lavage was measured by ELISA as described for ladostigil.
# [2] = system: bleomycin-induced lung fibrosis; assay: Lung fibrosis score / collagen content in bleomycin-induced lung fibrosis; type: in vivo, C57BL/6JOlaHsd mice
# Procedure: as §2
# Specimens taken from the left lung were embedded in paraffin and cut into 5 μm-thick slices. They were put on slides and paraffin was removed. They were rehydrated and stained with a solution of Sirius red (100 mg/100 ml of [COMPOUND LEFT OUT], rinsed in distilled water until clear, dehydrated and mounted in a resinous medium. The red stain (also called “Sirius red” stain) is one of the best understood histochemical techniques. It relies on the birefringent properties of collagen and is much more specific than the other common collagen stains, Pulmonary fibrosis was evaluated on a score of 0-4 on 15-20 different fields taken from each lung section, according to the area and intensity of fibrotic staining in the field, excluding that in blood vessels. Two independent scientists blinded to the treatment performed the analysis. For TGFβ1 staining, slides were deparaffinized and rehydrated. Antigen retrieval was performed in Tris-based buffer, pH 9.0. Endogenous peroxidase activity was quenched by incubation in 3% H2O2. The tissue was permeabilized with Triton X-100 0.1% in PBS. After blocking, sections were incubated with primary antibody: diluted rabbit recombinant monoclonal TGFβ1 antibody (Abcam ab215715) over night, at 4° C. Slices were further incubated with the secondary antibody: ImmPRESS®-HRP Goat Anti-Rabbit IgG Polymer Detection Kit, Peroxidase (Vector labs VE-MP-7451-15) at room temperature. For color development, sections were incubated in peroxidase substrate solution DAB, at room temperature until desired stain intensity developed. They were then counterstained with filtered hematoxylin and cosin, cleared and mounted.
# as §3
# IL-6 = IL-6 in bronchial fluid, bleomycin-induced lung fibrosis (ELISA); type: in vivo, C57BL/6JOlaHsd mice; details: ladostigil, bleomycin-induced lung fibrosis
# Procedure: The animal model of bleomycin-induced lung fibrosis is widely used to characterize the potential inhibitory effect of newly developed drugs (Distler et al. 2019). Experiments were performed in C57BL/6JOlaHsd male and female mice aged 12-13 weeks. Male mice weighed 23-27.3 g and female mice, 19.4-21.1 g. They were housed under pathogen-free conditions, up to 6 per cage, in IVC cages under a controlled temperature of 22-24° C., humidity and alternating 12-h light/dark cycles and provided with food and water ad libitum. In order to minimize the stress of daily injection, ladostigil (5 mg/Kg/day) was administered by micro-osmotic pumps, implanted subcutaneously under ketamine/xylazine anesthesia, 5 days before administration of bleomycin, and delivered for 3 weeks to mice of each sex. Saline (2-3/sex) and bleomycin controls were anesthetized as described above. Bleomycin solution (0.25 mg/kg in 50 μl) was instilled into the lumen of the trachea as shown in a video by Ehrentraut et al. (2019). […] TNFα and IL-6 in the bronchial fluid lavage was measured by ELISA as described in the preceding section.
# Experiments were performed in C57BL/6JOlaHsd male mice aged 12-13 weeks as described for ladostigil. […] Fibrosis was measured by staining with Sirius red as described for ladostigil. TNFα and IL-6 in the bronchial fluid lavage was measured by ELISA as described for ladostigil.
# TGFβ = assay: Cells containing TGFβ in the lung, bleomycin-induced lung fibrosis; type: in vivo, C57BL/6JOlaHsd mice; details: ladostigil + bleomycin; p<0.05
# Procedure: The animal model of bleomycin-induced lung fibrosis is widely used to characterize the potential inhibitory effect of newly developed drugs (Distler et al. 2019). Experiments were performed in C57BL/6JOlaHsd male and female mice aged 12-13 weeks. Male mice weighed 23-27.3 g and female mice, 19.4-21.1 g. They were housed under pathogen-free conditions, up to 6 per cage, in IVC cages under a controlled temperature of 22-24° C., humidity and alternating 12-h light/dark cycles and provided with food and water ad libitum. […] TNFα and IL-6 in the bronchial fluid lavage was measured by ELISA as described in the preceding section.
# Specimens taken from the left lung were embedded in paraffin and cut into 5 μm-thick slices. […] They were rehydrated and stained with a solution of Sirius red (100 mg/100 ml of [COMPOUND LEFT OUT], rinsed in distilled water until clear, dehydrated and mounted in a resinous medium. The red stain (also called “Sirius red” stain) is one of the best understood histochemical techniques. It relies on the birefringent properties of collagen and is much more specific than the other common collagen stains, Pulmonary fibrosis was evaluated on a score of 0-4 on 15-20 different fields taken from each lung section, according to the area and intensity of fibrotic staining in the field, excluding that in blood vessels. […]
# [3] = system: primary mouse microglial cultures activated by lipopolysaccharide (LPS); details: cited from earlier work
compound,measurement,setting,value
"C#CCN[C@@H]1CCc2ccc(OC(=O)N(C)CC)cc21 [Ladostigil, 6-(N-ethyl, N-methylcarbamyloxy)-N propargyl-1 (R)-aminoindan hemitartrate]",Emax,"IL6; Mus musculus, Microglia, 8 h, 1×10^−11-1×10^−9 M, read-out: maximal reduction of IL6",~50%
same,minimal effective concentration,"IL6; Mus musculus, microglia, BzATP/LPS, medium containing BSA, 8 hrs, read-out: lowest concentration that significantly decreased IL6 secretion",1e-07 µM
same,reduction of IL6 release,"IL6; all concentrations tested, added 2 hrs before BzATP and LPS, 0.1% BSA, p<0.01",reduced the 3 cytokines significantly
same,reduction of IL6 compared with reduction of TNF,"IL6; all concentrations tested, p<0.001",greater than those of TNF
same,Mean conc. ± SEM of TNFAIP3 in microglial cytoplasm,"TNFAIP3; BzATP/LPS, ladostigil 1×10^−10 M, Medium 19.8 ± 0.6",28.8 ± 0.9
same,change in cytoplasmic TNFαIP3 protein,"TNFAIP3; microglia, ladostigil 1×10^−10 M on top of BzATP/LPS",further increase
same,body weight loss,"[1]; females, 5 and 10 mg/kg",significantly reduced weight loss
same,body weight loss,"[1]; males, only at 10 mg/kg",significantly reduced weight loss
same,fibrosis (overall conclusion),[2]; bleomycin-induced lung fibrosis murine model,shown to reduce fibrosis
same,collagen deposition (hydroxyproline),"[2]; both sexes, 5 mg/Kg/day",reduced collagen deposition
same,fibrosis (score),"[2]; females, 2.5 and 5 mg/Kg/day",significantly reduced fibrosis
same,fibrosis (score),"[2]; males, 5 and 10 mg/kg/day",significantly reduced fibrosis
same,anti-inflammatory effect in bleomycin-induced lung fibrosis model,"[2]; mouse, in vivo",does not have an anti-inflammatory effect
same,IL-6 in bronchial fluid,IL-6,generally not affected; also recorded: did not reduce
same,number of cells containing TGFβ in the lung,TGFβ,significantly reduced the number of cells containing TGFβ
same,IL1β gene expression,[3],decreased gene expression
same,IL-6 gene expression,[3],decreased gene expression
same,TNFα gene expression,[3],decreased gene expression
